Data as given in ChEMBL document CHEMBL1137809, “Antifungal activity of benzoic acid derivatives from Piper lanceaefolium” (2002).
≈ marks a conversion by molar mass, not a printed value. Calls of active or inactive are those of the source. The calls are words filed in the database; no cut-off is given here.

Assays:
[1] = system: Candida albicans; test: Antifungal activity against Candida albicans after 24 hrs by broth dilution assay; format: functional
[2] = system: Cladosporium cucumerinum; test: Antifungal activity against Cladosporium cucumerinum at 5 ug by bioautographic TLC test; format: functional, organism-based

| MIC [1] [µg/mL] | Structure (SMILES) | Activity [1] | Activity [2] |
| --- | --- | --- | --- |
|  | CC(C)=CC(=O)c1cc(C(=O)O)ccc1O | inactive | inactive |
|  | CC(C)=CC(=O)c1cc(C(=O)O)cc(O)c1O | inactive |  |
|  | CC1(C)CC(=O)c2cc(C(=O)O)cc(O)c2O1 | inactive |  |
|  | COC(=O)c1cc(O)c2c(c1)C(=O)CC(C)(C)O2 | inactive |  |
| 100 (≈ 400 µM) | COC(=O)c1cc(O)c(O)c(C(=O)C=C(C)C)c1 [LANCEAEFOLIC ACID METHYL ESTER] |  |  |
